According to patent EP4722207A1, “OXOISOINDOLINYL-SUBSTITUTED TETRAHYDROPYRIMIDINEDIONE DERIVATIVE AND USE THEREOF” (Gluetacs Therapeutics (Shanghai) Co., Ltd., priority 2023, dated 2024):

Experiments:
[1] = molecular target: T1, WEE1 (Homo sapiens, UniProt P30291+Q96SW2); assay: Western-blot assay, substrate protein degradation in hPBMCs: WEE1; assay type: cell-based; details: compounds at 50 nM and 500 nM, 24 hours
T1 construct: effects of the compounds of the present disclosure on the expression of target proteins in cells; endogenous in cells; host or cells: human PBMCs (hPBMCs)
T1 sequence (P30291 whole entry): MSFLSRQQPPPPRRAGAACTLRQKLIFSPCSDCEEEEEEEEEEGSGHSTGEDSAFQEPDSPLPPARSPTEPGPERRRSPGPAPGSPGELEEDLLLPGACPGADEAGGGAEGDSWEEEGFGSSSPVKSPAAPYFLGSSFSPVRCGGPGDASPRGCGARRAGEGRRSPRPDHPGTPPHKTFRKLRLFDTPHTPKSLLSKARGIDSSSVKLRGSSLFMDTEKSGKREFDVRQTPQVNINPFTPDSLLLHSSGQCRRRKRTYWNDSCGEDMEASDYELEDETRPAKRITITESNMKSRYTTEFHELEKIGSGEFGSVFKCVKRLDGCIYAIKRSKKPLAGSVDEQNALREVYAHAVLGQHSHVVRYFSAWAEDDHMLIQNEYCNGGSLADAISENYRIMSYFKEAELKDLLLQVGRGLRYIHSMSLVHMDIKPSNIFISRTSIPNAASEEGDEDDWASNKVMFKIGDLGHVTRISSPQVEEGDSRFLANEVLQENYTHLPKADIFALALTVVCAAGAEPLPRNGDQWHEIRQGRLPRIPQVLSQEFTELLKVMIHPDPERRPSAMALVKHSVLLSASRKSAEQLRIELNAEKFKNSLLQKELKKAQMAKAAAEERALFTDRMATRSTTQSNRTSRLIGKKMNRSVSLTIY
T1 sequence (Q96SW2 whole entry): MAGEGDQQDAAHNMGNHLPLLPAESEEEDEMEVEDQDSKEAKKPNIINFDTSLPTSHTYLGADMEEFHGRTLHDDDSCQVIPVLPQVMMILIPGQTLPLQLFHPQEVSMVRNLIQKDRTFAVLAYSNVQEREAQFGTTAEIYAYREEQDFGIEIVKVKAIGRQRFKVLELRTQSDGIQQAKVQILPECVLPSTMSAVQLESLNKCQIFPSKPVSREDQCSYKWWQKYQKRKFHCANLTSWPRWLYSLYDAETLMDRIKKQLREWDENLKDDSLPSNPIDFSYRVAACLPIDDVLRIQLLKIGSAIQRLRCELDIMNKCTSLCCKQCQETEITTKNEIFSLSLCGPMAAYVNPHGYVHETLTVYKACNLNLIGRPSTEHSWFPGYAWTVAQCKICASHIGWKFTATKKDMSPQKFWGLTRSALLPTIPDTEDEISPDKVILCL
T1 sequence (Q16531 whole entry partner): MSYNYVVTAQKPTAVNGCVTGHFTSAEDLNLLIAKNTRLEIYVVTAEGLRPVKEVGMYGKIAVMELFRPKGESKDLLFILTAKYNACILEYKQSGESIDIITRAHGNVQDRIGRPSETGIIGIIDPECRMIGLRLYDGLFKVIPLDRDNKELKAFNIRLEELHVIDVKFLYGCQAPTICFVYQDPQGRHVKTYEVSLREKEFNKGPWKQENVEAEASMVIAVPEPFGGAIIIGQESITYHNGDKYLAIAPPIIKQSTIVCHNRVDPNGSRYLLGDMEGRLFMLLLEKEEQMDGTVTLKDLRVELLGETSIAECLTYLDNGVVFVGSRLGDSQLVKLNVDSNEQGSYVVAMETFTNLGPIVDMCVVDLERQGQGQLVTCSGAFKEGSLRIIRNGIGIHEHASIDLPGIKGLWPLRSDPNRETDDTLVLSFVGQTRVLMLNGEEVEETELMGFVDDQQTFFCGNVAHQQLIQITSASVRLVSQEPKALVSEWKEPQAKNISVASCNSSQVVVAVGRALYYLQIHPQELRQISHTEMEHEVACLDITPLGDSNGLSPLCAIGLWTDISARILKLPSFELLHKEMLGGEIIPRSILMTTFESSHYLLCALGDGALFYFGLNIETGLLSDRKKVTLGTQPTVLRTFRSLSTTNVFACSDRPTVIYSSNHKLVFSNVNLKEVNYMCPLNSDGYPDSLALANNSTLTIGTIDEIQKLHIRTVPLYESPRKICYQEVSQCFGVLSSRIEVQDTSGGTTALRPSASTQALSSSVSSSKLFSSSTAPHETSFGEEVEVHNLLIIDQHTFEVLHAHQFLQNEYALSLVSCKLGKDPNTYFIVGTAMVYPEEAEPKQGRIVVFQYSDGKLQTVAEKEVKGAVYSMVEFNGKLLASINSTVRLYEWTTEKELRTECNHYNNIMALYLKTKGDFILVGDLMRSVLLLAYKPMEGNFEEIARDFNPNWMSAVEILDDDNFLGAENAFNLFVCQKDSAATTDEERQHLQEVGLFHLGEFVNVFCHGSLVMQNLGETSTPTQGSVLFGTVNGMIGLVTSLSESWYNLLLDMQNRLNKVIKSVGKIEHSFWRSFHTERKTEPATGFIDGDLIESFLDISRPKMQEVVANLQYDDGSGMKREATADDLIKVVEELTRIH

[2] = molecular target: T2, IKZF1 (Homo sapiens, UniProt Q13422+Q96SW2); assay: Western-blot assay, substrate protein degradation in hPBMCs: IKZF1; assay type: cell-based; details: compounds at 50 nM and 500 nM, 24 hours
T2 construct: effects of the compounds of the present disclosure on the expression of target proteins in cells; endogenous in cells; host or cells: human PBMCs (hPBMCs)
T2 sequence (Q13422 whole entry): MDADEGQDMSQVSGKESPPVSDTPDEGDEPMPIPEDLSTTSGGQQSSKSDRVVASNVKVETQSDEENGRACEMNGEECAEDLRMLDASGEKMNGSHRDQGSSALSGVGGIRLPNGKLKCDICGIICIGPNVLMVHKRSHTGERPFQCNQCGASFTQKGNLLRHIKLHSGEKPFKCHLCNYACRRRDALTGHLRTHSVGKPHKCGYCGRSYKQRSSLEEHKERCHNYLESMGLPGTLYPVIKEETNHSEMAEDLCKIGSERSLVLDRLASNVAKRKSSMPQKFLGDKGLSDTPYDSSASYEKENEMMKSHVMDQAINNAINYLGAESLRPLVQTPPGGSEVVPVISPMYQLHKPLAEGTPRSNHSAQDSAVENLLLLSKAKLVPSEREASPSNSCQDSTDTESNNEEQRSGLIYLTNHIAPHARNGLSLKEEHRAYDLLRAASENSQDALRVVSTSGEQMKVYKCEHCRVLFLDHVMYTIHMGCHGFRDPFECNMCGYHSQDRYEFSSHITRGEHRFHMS
T2 sequence (Q96SW2 whole entry): as the sequence (Q96SW2 whole entry) above
T2 sequence (Q16531 whole entry partner): as the sequence (Q16531 whole entry partner) above

[3] = molecular target: T3, IKZF2 (Homo sapiens, UniProt Q96SW2+Q9UKS7); assay: Western-blot assay, substrate protein degradation in hPBMCs: IKZF2; assay type: cell-based; details: compounds at 50 nM and 500 nM, 24 hours
T3 construct: effects of the compounds of the present disclosure on the expression of target proteins in cells; endogenous in cells; host or cells: human PBMCs (hPBMCs)
T3 sequence (Q9UKS7 whole entry): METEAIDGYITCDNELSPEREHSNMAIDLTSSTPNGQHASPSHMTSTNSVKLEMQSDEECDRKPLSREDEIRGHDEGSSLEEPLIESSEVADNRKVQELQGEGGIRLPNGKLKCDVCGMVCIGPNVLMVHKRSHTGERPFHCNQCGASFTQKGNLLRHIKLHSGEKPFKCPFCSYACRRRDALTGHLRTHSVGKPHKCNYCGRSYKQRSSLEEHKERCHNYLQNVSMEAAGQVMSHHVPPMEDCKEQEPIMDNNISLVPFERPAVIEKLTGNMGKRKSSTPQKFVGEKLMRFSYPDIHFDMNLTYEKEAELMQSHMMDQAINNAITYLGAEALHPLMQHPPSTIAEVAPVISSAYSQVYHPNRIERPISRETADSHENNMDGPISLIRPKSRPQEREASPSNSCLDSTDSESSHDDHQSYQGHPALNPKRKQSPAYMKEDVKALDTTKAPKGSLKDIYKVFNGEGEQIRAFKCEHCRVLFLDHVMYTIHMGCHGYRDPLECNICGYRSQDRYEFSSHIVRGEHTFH
T3 sequence (Q96SW2 whole entry): as the sequence (Q96SW2 whole entry) above
T3 sequence (Q16531 whole entry partner): as the sequence (Q16531 whole entry partner) above

[4] = molecular target: T4, IKZF3 (Homo sapiens, UniProt Q96SW2+Q9UKT9); assay: Western-blot assay, substrate protein degradation in hPBMCs: IKZF3; assay type: cell-based; details: compounds at 50 nM and 500 nM, 24 hours
T4 construct: effects of the compounds of the present disclosure on the expression of target proteins in cells; endogenous in cells; host or cells: human PBMCs (hPBMCs)
T4 sequence (Q9UKT9 whole entry): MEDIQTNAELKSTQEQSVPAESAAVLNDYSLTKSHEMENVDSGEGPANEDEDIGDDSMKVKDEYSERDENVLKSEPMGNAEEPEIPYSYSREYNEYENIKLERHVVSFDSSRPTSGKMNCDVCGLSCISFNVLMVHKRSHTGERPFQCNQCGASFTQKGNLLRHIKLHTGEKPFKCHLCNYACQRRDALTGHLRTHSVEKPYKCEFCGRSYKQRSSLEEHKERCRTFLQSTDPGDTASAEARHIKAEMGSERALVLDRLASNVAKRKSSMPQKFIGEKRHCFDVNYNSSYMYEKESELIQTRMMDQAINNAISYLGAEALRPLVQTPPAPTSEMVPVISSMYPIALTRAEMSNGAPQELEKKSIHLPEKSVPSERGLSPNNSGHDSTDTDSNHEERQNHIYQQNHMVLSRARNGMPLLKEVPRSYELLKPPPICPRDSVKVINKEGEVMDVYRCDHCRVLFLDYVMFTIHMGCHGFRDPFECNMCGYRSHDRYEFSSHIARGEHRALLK
T4 sequence (Q96SW2 whole entry): as the sequence (Q96SW2 whole entry) above
T4 sequence (Q16531 whole entry partner): as the sequence (Q16531 whole entry partner) above

[5] = molecular target: T5, CK1α (Homo sapiens, UniProt P48729+Q96SW2); assay: Western-blot assay, substrate protein degradation in hPBMCs: CK1α; assay type: cell-based; details: compounds at 50 nM and 500 nM, 24 hours
T5 construct: effects of the compounds of the present disclosure on the expression of target proteins in cells; endogenous in cells; host or cells: human PBMCs (hPBMCs)
T5 sequence (P48729 whole entry): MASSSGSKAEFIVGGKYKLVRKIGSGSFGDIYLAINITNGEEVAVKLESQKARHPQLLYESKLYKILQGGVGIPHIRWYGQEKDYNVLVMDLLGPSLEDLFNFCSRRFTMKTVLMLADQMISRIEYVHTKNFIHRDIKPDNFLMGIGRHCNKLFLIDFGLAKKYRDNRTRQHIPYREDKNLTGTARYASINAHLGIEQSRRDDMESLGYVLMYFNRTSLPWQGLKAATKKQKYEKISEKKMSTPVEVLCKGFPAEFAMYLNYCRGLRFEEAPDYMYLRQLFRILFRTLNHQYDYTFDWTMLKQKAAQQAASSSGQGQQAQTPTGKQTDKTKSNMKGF
T5 sequence (Q96SW2 whole entry): as the sequence (Q96SW2 whole entry) above
T5 sequence (Q16531 whole entry partner): as the sequence (Q16531 whole entry partner) above

[6] = molecular target: T6, GSPT1 (Homo sapiens, UniProt P15170+Q96SW2); assay: Western-blot assay, substrate protein degradation in hPBMCs: GSPT1; assay type: cell-based; details: compounds at 50 nM and 500 nM, 24 hours
T6 construct: effects of the compounds of the present disclosure on the expression of target proteins in cells; endogenous in cells; host or cells: human PBMCs (hPBMCs)

[7] = test system: MM.1S; assay: Cell viability assay (CellTiter-Meiluncell Luminescent), tumor cell proliferation, MM.1S; details: Homo sapiens, MM1.S, 96 h, read-out: inhibitory activity (IC50, nM) against tumor cells proliferation, MM.1S
[8] = test system: MGC803; assay: Cell viability assay (CellTiter-Meiluncell Luminescent), tumor cell proliferation, MGC803; details: Homo sapiens, MGC-803, 96 h, read-out: inhibitory activity (IC50, nM) against tumor cells proliferation, MGC803
Method: (§1) On the following day, the test compounds of the present disclosure were subjected to serial dilution. […] Subsequently, 0.5 µL of the test compound dilution was transferred into the 96-well plate containing the cells, with each well containing 100 µL of cell culture medium. […] Into the 96-well plate, the diluted test compounds and corresponding detection reagents were added, resulting in final test compound concentrations of 500 nM and 10 nM, respectively.
(§2) After the cells were treated with the compounds of the present disclosure for a specified period, the cell viability assay reagent was added to the culture medium according to the kit's instructions to determine cell viability. […] All controls were treated using the same procedure as the compounds of the present disclosure. The growth inhibition curves for the compounds of the present disclosure were plotted using Prism GraphPad software, and the IC50 values were calculated therefrom.

[9] = test system: Jurkat; assay: Cell viability assay (CellTiter-Meiluncell Luminescent), tumor cell proliferation, Jurkat; details: Homo sapiens, 96 h, read-out: inhibitory activity (IC50, nM) against tumor cells proliferation, Jurkat
Method: as §1, §2

SMILES | WEE1 substrate protein remaining % [1] | IKZF1 substrate protein remaining % [2] | IKZF2 substrate protein remaining % [3] | IKZF3 substrate protein remaining % [4] | CK1α substrate protein remaining % [5] | GSPT1 substrate protein remaining % [6] | IC50 [7] [nM] | IC50 [8] [nM] | IC50 [9] [nM]
O=C1CCN(N2Cc3cc(CN4CCN(C(c5ccccc5)c5ccccc5)CC4)ccc3C2=O)C(=O)N1 [GT-04889, 1-(5-((4-benzhydrylpiperazin-1-yl)methyl)-1-oxoisoindolin-2-yl)dihydropyrimidine-2,4(1H,3H)-dione] | A ("A" is defined as 0% ≤ substrate protein remaining % ≤ 80%) | A ("A" is defined as 0% ≤ substrate protein remaining % ≤ 80%) | A ("A" is defined as 0% ≤ substrate protein remaining % ≤ 80%) | A ("A" is defined as 0% ≤ substrate protein remaining % ≤ 80%) | B ("B" is defined as 80%< substrate protein remaining %≤ 100%) | A ("A" is defined as 0% ≤ substrate protein remaining % ≤ 80%) | 100 to 300 | 300 to 500 | 300 to 500
O=C1CCN(N2Cc3cc(CN4CCC(N(c5ccccc5)c5ccccc5)CC4)ccc3C2=O)C(=O)N1 [GT-04939, 1-(5-((4-(diphenylamino)piperidin-1-yl)methyl)-1-oxoisoindolin-2-yl)dihydropyrimidine-2,4(1H,3H)-dione] | A ("A" is defined as 0% ≤ substrate protein remaining % ≤ 80%) | A ("A" is defined as 0% ≤ substrate protein remaining % ≤ 80%) | A ("A" is defined as 0% ≤ substrate protein remaining % ≤ 80%) | A ("A" is defined as 0% ≤ substrate protein remaining % ≤ 80%) | A ("A" is defined as 0% ≤ substrate protein remaining % ≤ 80%) | A ("A" is defined as 0% ≤ substrate protein remaining % ≤ 80%) | 10 to 50 | 100 to 300 | 100 to 300
O=C1CCN(N2Cc3cc(CN4CCC(N(c5ccccc5)c5ccccn5)CC4)ccc3C2=O)C(=O)N1 [GT-04940, 1-(1-oxo-5-((4-(phenyl(pyridin-2-yl)amino)piperidin-1-yl)methyl)isoindolin-2-yl)dihydropyrimidine-2,4(1H,3H)-dione] | A ("A" is defined as 0% ≤ substrate protein remaining % ≤ 80%) | A ("A" is defined as 0% ≤ substrate protein remaining % ≤ 80%) | A ("A" is defined as 0% ≤ substrate protein remaining % ≤ 80%) | A ("A" is defined as 0% ≤ substrate protein remaining % ≤ 80%) | A ("A" is defined as 0% ≤ substrate protein remaining % ≤ 80%) | A ("A" is defined as 0% ≤ substrate protein remaining % ≤ 80%) | 50 to 100 | 100 to 300 | 100 to 300
O=C1CCN(N2Cc3cc(CN4CCC(Nc5ccccc5-c5ccc(Cl)cc5)CC4)ccc3C2=O)C(=O)N1 [GT-04943, 1-(5-((4-((4'-chloro-[1,1'-biphenyl]-2-yl)amino)piperidin-1-yl)methyl)-1-oxoisoindolin-2-yl)dihydropyrimidine-2,4(1H,3H)-dione] | A ("A" is defined as 0% ≤ substrate protein remaining % ≤ 80%) | A ("A" is defined as 0% ≤ substrate protein remaining % ≤ 80%) | A ("A" is defined as 0% ≤ substrate protein remaining % ≤ 80%) | A ("A" is defined as 0% ≤ substrate protein remaining % ≤ 80%) | B ("B" is defined as 80%< substrate protein remaining %≤ 100%) | A ("A" is defined as 0% ≤ substrate protein remaining % ≤ 80%) | 10 to 50 | 100 to 300 | 100 to 300
